Data taken from patent publication US8828678B2, “Self-immolative probes for enzyme activity detection” (Enzo Life Sciences, Inc., priority 2010, dated 2014).

Experiments:
hypoxic HeLa cells = experiment: Detection of hypoxia with hypoxia markers using fluorescence microscopy; type: cell-based, human; conditions: 5 μM, 3.5 h, chemical induction of hypoxia (CoCl2, DFO, DMOG) or anoxic treatment, FITC filter
Protocol: The human cervical adenocarcinoma epithelial cell line HeLa, U-2 OS human bone osteosarcoma cell line and hamster ovary CHO K1 cell line were obtained from ATTC. HeLa cells were routinely cultured in Eagle's Minimum Essential Medium with low glucose (ATCC), supplemented with 10% fetal bovine serum (ATCC) and 100 U/ml penicillin, 100 μg/ml streptomycin (Sigma-Aldrich, St. Louis, Mo.). U-2 OS cells were routinely cultured in McCoy's 5a Modified Medium (ATCC), supplemented with 10% fetal bovine serum heat (ATCC) and 100 U/ml penicillin+100 μg/ml streptomycin (Sigma-Aldrich). […]
The day before the experiment, the cells were seeded on 4-well microscope slides (Cel-Line™ Brand, Portsmouth, N.H.) at a density 1×10^4 cells/well (2×10^4 cells/cm^2). […] Post-treatment, the slides were washed twice with PBS, coverslipped and visualized using an Olympus BX-51 fluorescence microscope (FITC filter set, 490ex/525em).
In parallel, the hypoxia cellular state was detected using the hypoxia detecting reagent pimonidazole (Varia et al., 1998; Young, 1977). […] Slides were stained with a 1:100 dilution of FITC-MAb1 against pimonidazole (HP-1 kit from Hypoxyprobe) for 45 min at 4° C., washed twice with PBS, coverslipped and visualized using an Olympus BX-51 fluorescence microscope equipped with an FITC filter set (490ex/525em). […]

HeLa cells = experiment: Combined detection of hypoxia and redox status in live cells by fluorescent microscopy; type: cell-based, human; conditions: for superoxide production (superoxide detection reagent staining) in treated HeLa cells: 0.2 mM CoCl2, 0.2 mM DFO or 1 mM DMOG, 3.5 h
Protocol: HeLa and U-2 OS cells were cultured as described in Example 7. Stock solutions of CD-1 and CD-5 and various hypoxia inducers were prepared and stored as described in Examples 7 and 8. Additionally, 5 mM stock solutions (5000×) of 2′,7′-dichloro-fluorescein diacetate (DCFDA, an indicator of global ROS generation) and dihydroethidium (DHE, specific indicator of superoxide generation) were made in anhydrous DMF. DMSO was avoided, since this solvent is a hydroxyl radical scavenger and its presence may affect ROS/RNS production in cellular systems. The following stocks of ROS inducers were prepared in DMF: 10 mM pyocyanin (general ROS generating compound, 100×), 20 mM antimycin A (general ROS inducer, 400×), 50 mM pyrogallol (a superoxide radical generator, 1000×), 1 mM t-butyl hydroperoxide (TBHP, peroxide radical inducer, 10,000×). ROS probes and inducers were aliquoted and stored at −80° C.
The day before the experiment, the cells were seeded on 4-well microscope slides (Cel-Line™ Brand, Portsmouth, N.H.) at a density 1×10^4 cells/well (2×10^4 cells/cm^2). On the day of the experiment, the cells were preloaded with both hypoxia probe (5 μM final concentration in cell culture medium) and ROS detecting reagent with suitable spectral characteristics. Two ROS-detecting probes, DCFDA and DHE, were used in a pilot experiment in conjunction with hypoxia self-immolative probes. The hydrolyzed product of DCFDA, DCFH, is considered to be a general indicator of ROS, reacting with H2O2 (in the presence of peroxidases), ONOO^−, lipid hydroperoxides, and hydroxyl radicals. The oxidized product can be detected by strong fluorescence emission at around 525 nm when excited at around 488 nm. Because H2O2 is a secondary product of O2.^−, DCFH fluorescence has been used to implicate O2.^− production. The direct reaction of DHE with O2.^− yields a very specific fluorescent product, requiring no conversion to H2O2. The product of the DHE reaction with O2.^− fluoresces strongly at around 600 nm when excited at 500-530 nm.
Tested pairs of the probes were as follows: CD-5 with DCFDA or DHE, and CD-1 with DHE. A hypoxic state was induced in the cells as described in Example 7. Control slides were singly-stained with hypoxia or ROS-detecting probes only. Additional slides were treated with different general and specific ROS inducers and stained with ROS-detecting probes to control ROS staining. Post-treatment, the slides were washed twice with PBS, coverslipped and visualized using an Olympus BX-51 fluorescence microscope and a DAPI filter set (350 ex/470em) for CD-5, an FITC filter set (490ex/525em) for CD-1 or for total ROS detection reagent, and an orange filter set (550ex/620em) for HE.

Jurkat cells [1] = experiment: Combined detection of hypoxia and superoxide in live cells by flow cytometry; type: cell-based, human
Protocol: HeLa, U-2 OS, and Jurkat cell lines were cultured as described in Examples 7 and 9. Stock solutions of the probes and inhibitors were prepared as described in Examples 7 and 10.
The day before the experiment, HeLa and U-2 OS cells were seeded in 6-well tissue culture plates at a density of 5×10^5 cells/well. Jurkat cells were collected in logarithmic phase of growth and aliquoted at a density of 5×10^5 cells/sample. On the day of the experiment, the cells were preloaded with either hypoxia or ROS-detecting probes only or with the combination of hypoxia and ROS-detecting probes with compatible spectral characteristics. Samples stained with single hypoxia probes or with two ROS-detecting probes were made to validate data obtained with the combination of hypoxia and redox probes. The probes used in the experiment and their final concentrations in cell culture medium were as follows: CD-1(5 μM) and CD-6 (1 μM), DCFDA, peroxide/peroxynitrite/hydroxyl detection probe and HE, specific superoxide detection reagent (1 μM for both redox probes). Hypoxia was induced in the cells as described in Example 7. Additionally, cells were treated with different general and specific ROS inducers and stained with ROS-detecting probes to control ROS production and staining. Post-treatment, the adherent cells (HeLa and U-2 OS) were collected by trypsinization, re-suspended in 0.5 mL of fresh PBS and analyzed using flow cytometry. Jurkat cells were analyzed without washing. Flow cytometry experiments were performed using an FACS Calibur benchtop flow cytometer (BD Biosciences) equipped with a blue (488 nm) laser, and the fluorescence was recorded in the FITC (530/30 filter), PE (585/42 filter) and PerCP (670 LP filter) channels. Data were collected uncompensated, also compensation corrections were performed using unstained cells, and cells stained with each single dye separately (CD-1, CD-6, DCFDA or HE). To quantify data, quadrant gates were set using untreated samples.

[2] = Chemical assay: reduction of probe by sodium hydrosulfite, fluorescence; conditions: PBS pH 7.4, room temperature, over a 60 minute period
Protocol: A solution of probe CD-6 in DMSO (0.1-1.0 μl) was added to 90 μl of PBS buffer (10 mM, pH 7.4). After mixing, 10 μl of 100 mM aqueous sodium hydrosulfite was added. The reaction mixture was incubated at room temperature for amount of time ranging from 1 minute to 6 hours. As a control, 10 μl of water instead of sodium hydrosulfite was used.

Jurkat cells [3] = experiment: Detection of hypoxia using flow cytometry; type: cell-based, human; conditions: 5 μM CD-1, 1 μM CD-6, versus vehicle-treated loaded cells
Protocol: HeLa and U-2 OS cells were cultured as described in Example 7. Human Jurkat T-cell leukemia cells (the A3 subclone) was obtained from ATCC and routinely cultured in RPMI-1640 medium (ATCC) supplemented with 10% fetal bovine serum (ATCC) and 100 U/ml penicillin+100 μg/ml streptomycin (Sigma-Aldrich). Cell cultures were maintained in an incubator at 37° C., with 5% CO2 atmosphere. CD-1, CD-4 and CD-6 self-immolative hypoxia probes were prepared as described in Example 8. All hypoxia inducers stocks were prepared as described in Example 7.
The day before the experiment, HeLa and U-2 OS cells were seeded in 6-well tissue culture plates at a density 5×10^5 cells/well. […] Post-treatment, the adherent cells (HeLa and U-2 OS) were collected by trypsinization, re-suspended in 0.5 mL of fresh PBS and analyzed using flow cytometry. Jurkat cells were analyzed without washing.
Flow cytometry experiments were performed using a FACS Calibur benchtop flow cytometer (BD Biosciences) equipped with a blue (488 nm) laser, and the fluorescence was recorded in the FITC (530/30 filter), PE (585/42 filter) and PerCP (670 LP filter) channels. Hypoxic cells were detected by detecting increases in fluorescence. The degree of hypoxia (Khyp) can be quantified by using Kolmogorov-Smirnov statistics (Young, 1977) or the following formula: Khyp=(MFIhyp−MFIcon)/MFIhyp, […]

[4] = tested on: bacterial nitroreductases; conditions: cited from earlier work
[5] = tested on: mammalian single-electron reductases; conditions: cited from earlier work

Compound: O=C(Nc1ccc2c(c1)Oc1cc(NC(=O)N3CCOCC3)ccc1C21OC(=O)c2ccccc21)OCc1ccccc1 (centres unmarked) [CD-3]
- fluorescence signal in hypoxic HeLa cells (hypoxic HeLa cells): did not yield any fluorescent signal

Compound: O=C(Nc1ccc2c(C(F)(F)F)cc(=O)oc2c1)OCc1ccc([N+](=O)[O-])cc1 [CD-5]
- hypoxia probe fluorescent signal in hypoxic HeLa cells, multiplexed with ROS dyes (HeLa cells; 5 μM, all four hypoxic samples (anoxia, CoCl2, DFO, DMOG)): bright fluorescent signal

Compound: O=C(Nc1ccc2c(c1)Oc1c(cc3c4c1CCCN4CCC3)C21OC(=O)c2ccccc21)OCc1ccc([N+](=O)[O-])cc1 (centres unmarked) [CD-6]
- detection of hypoxic cell populations (Jurkat cells [1]; CD-6 1 μM with DCFDA or HE dyes or alone, flow cytometry): able to detect hypoxic cell populations
- fluorescence after combining with sodium hydrosulfite [2]: increasing fluorescence
- fluorescence in Jurkat cells treated with chemical hypoxia inducers or subjected to anoxia (Jurkat cells [3]): fluorescence increase

Compound: O=c1c(Cl)c2oc3cc([N+](=O)[O-])ccc3nc-2c2ccccc12 [CNOB, 6-Chloro-9-nitro-5-oxo-5H-benzo[a]phenoxazine]
- substrate for bacterial nitroreductases [4]: good substrate
- substrate for mammalian nitroreductases [5]: apparently not a substrate

Compound: [Cl][Co][Cl] [CoCl2, cobalt chloride]
- superoxide production: population of orange positive cells (Jurkat cells [1]; Jurkat cells, compared to the untreated cells): about 20%
- superoxide production (superoxide detection reagent staining) in treated HeLa cells (HeLa cells): only moderate staining

Compound: CC(=O)N(O)CCCCCNC(=O)CCC(=O)N(O)CCCCCNC(=O)CCC(=O)N(O)CCCCCN [DFO, desferrioxamine]
- superoxide production (superoxide detection reagent staining) in treated HeLa cells (HeLa cells): Abundant superoxide production

Compound: COC(=O)CNC(=O)C(=O)OC [DMOG, dimethyloxalylglycine, N-[Methoxyoxoacetyl]glycine methyl ester]
- superoxide production (superoxide detection reagent staining) in treated HeLa cells (HeLa cells): Abundant superoxide production
- peroxides/peroxynitrite formation in treated HeLa cells (HeLa cells; DCFDA staining): detected in DMOG-treated cells only

Compound: Cn1c2cccc(=O)c-2nc2ccccc21 [Pyocyanin, pyocyanin]
- hypoxia state: positive green cells (Jurkat cells [1]; Jurkat cells stained with CD-1, pyocyanin-treated): about 10%
- superoxide production in treated Jurkat cells (Jurkat cells [1]; positive control for ROS production): high superoxide production
